Source: patent US10463651B2, “3-(1H-pyrrolo[3,2-C]pyridin-2-YL)-1H-indazoles and therapeutic uses thereof” (Samumed, LLC, priority 2015, dated 2019)

Tests used:
Type in all cases: cell-based
[1] = test system: primary human fibroblasts derived from IPF patients (LL29 cells) treated with TGF-β1; test: Inhibition of the fibrotic process (αSMA staining) in TGF-β1-treated fibroblasts; conditions: Fibroblast, 96 h; for EC50: % αSMA-positive LL29 cells, TGF-β1 20 ng/mL, 4 days
Procedure, shortened: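 LL29 fibroblasts from IPF patients, 1,500 cells/well in F12 with 1% FBS, stimulated with TGF-β1; TGF-β1 plus DMSO wells as controls. Incubation 4 days, then SYTOX green 1 μM final for 30 min at room temperature. Fibrotic response read as αSMA staining.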

IL-6 (THP-1 cells) = test: IL-6 inhibition in LPS-stimulated THP-1 cells (HTRF); conditions: Homo sapiens; for EC50: IL6 by HTRF, THP-1 cells, 500 ng/mL LPS, 22 hours; for inhibition at 10 µM: THP-1, read-out: percent inhibition at 10 M
Procedure, shortened: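 THP-1 cells, pre-cultured 24 h in 1% FBS medium, treated with compound 2 h at 37 °C, then stimulated with 500 ng/mL LPS for 22 h. Secreted IL-6 measured by HTRF as the 665/620 nm ratio. Values normalized to DMSO; EC50 from four-parameter fit, duplicates.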

SW480 colon cancer cells = test: Cell viability assay (CellTiter-Blue); conditions: Homo sapiens; for EC50: 96 h, SW480 cell viability, four days, CellTiter-Blue; for inhibition at 10 µM: SW480, 96 h, read-out: percent inhibition at 10 μM
Procedure, shortened: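 Fluorescence from resazurin reduced to resorufin by metabolically active cells was the read-out, taken after ~3 h with CellTiter-Blue.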

[2] = test system: Wnt activity (Sp5-Luc reporter, SW480 colon carcinoma cells); test: Screening assay for Wnt activity (Sp5-Luc reporter gene assay in SW480 cells); conditions: Homo sapiens; for EC50: Sp5-Luc reporter, SW480 cells, incubated overnight; for inhibition at 10 µM: SW480, read-out: percent inhibition at 10 μM
Procedure, shortened: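 SW480 colon carcinoma cells stably carrying Sp5 promoter (eight TCF/LEF sites)-driven firefly luciferase, plated at 4,000 cells/well in 1% FBS medium and incubated overnight at 37° C. Luminescence normalised to DMSO-only cells; EC50 from four-parameter variable-slope nonlinear regression.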

[3] = test system: primary human mesenchymal stem cells (hMSCs); test: Induction of chondrogenesis in hMSCs (Rhodamine B / Nile Red nodule imaging); conditions: for EC50: concentration required to induce 50% levels of chondrogenesis vs TGF-β3 positive control, read-out: Conc (nM) of 50% TGF-β3 activity; for Emax: maximum activity relative to TGF-β3 (10 ng/mL) positive control, read-out: Max. Activity as % TGF-β3 activity
Source text: Representative compounds were screened using primary human mesenchymal stem cells (hMSCs) to determine their ability to induce chondrogenesis (process by which cartilage is developed).
Primary human mesenchymal stem cells (hMSCs) were purchased from Lonza (Walkersville, Md.) and expanded in Mesenchymal Stem Cell Growth Media (Lonza). Cells between passage 3 and 6 were used for the experiments.
Area of nodules in each well was normalized to the average of 3 DMSO treated wells on the same plate using Excel (Microsoft Inc.). The normalized averages (fold change over DMSO) of 2 or 3 replicate wells for each compound concentration were calculated. Due to solubility limitations of some of the compounds, curve fitting was incomplete leading to inaccurate EC50 determinations.
Using TGF-β3 as a positive control, the concentration of representative compounds required to induce 50% levels of chondrogenesis is reported. In addition, the maximum activity of each compound and the respective dose that each compound reached maximum chondrogenesis activity is reported.

Row | EC50 (IL-6 (THP-1 cells)) | EC50 (SW480 colon cancer cells) | EC50 [2] | EC50 [3] | SMILES | EC50 [1] | Emax [3] | inhibition at 10 µM ([1]; read-out: percent inhibition at 10 μM) | inhibition at 10 µM (SW480 colon cancer cells) | inhibition at 10 µM [2] | inhibition at 10 µM (IL-6 (THP-1 cells))
1 | 73 nM | 221 nM | 170 nM | 2700 nM | CC(C)C(=O)Nc1cncc(-c2ccc3[nH]nc(-c4cc5c(-c6ccccc6F)nccc5[nH]4)c3c2)c1 [Compound 65, N-(5-(3-(4-(2-Fluorophenyl)-1H-pyrrolo[3,2-c]pyridin-2-yl)-1H-indazol-5-yl)pyridin-3-yl)isobutyramide] | 98 nM | 108% |  |  |  | 
2 | 1090 nM | 1000 nM | 2800 nM |  | Fc1ccccc1-c1nccc2[nH]c(-c3n[nH]c4ccc(-c5cncc(CN6CCCCC6)c5)cc34)cc12 [Compound 71, 3-(4-(2-Fluorophenyl)-1H-pyrrolo[3,2-c]pyridin-2-yl)-5-(5-(piperidin-1-ylmethyl)pyridin-3-yl)-1H-indazole] | 1940 nM | 16% |  |  |  | 
3 | 39 nM | 221 nM | 345 nM | 2700 nM | CCCCC(=O)Nc1cncc(-c2ccc3[nH]nc(-c4cc5c(-c6ccccc6F)nccc5[nH]4)c3c2)c1 [Compound 75, N-(5-(3-(4-(2-Fluorophenyl)-1H-pyrrolo[3,2-c]pyridin-2-yl)-1H-indazol-5-yl)pyridin-3-yl)pentanamide] | 254 nM | 76% |  |  |  | 
4 | 78 nM | 549 nM | 418 nM | 10 nM | O=C(Nc1cncc(-c2ccc3[nH]nc(-c4cc5c(-c6ccccc6F)nccc5[nH]4)c3c2)c1)C1CCCC1 [Compound 78, N-(5-(3-(4-(2-Fluorophenyl)-1H-pyrrolo[3,2-c]pyridin-2-yl)-1H-indazol-5-yl)pyridin-3-yl)cyclopentanecarboxamide] | 841 nM | 71% |  |  |  | 
5 | 181 nM | 821 nM | 233 nM | 2700 nM | Fc1ccccc1-c1nccc2[nH]c(-c3n[nH]c4ccc(-c5cncc(CN6CCC(F)(F)C6)c5)cc34)cc12 [Compound 82, 5-(5-((3,3-Difluoropyrrolidin-1-yl)methyl)pyridin-3-yl)-3-(4-(2-fluorophenyl)-1H-pyrrolo[3,2-c]pyridin-2-yl)-1H-indazole] | 221 nM | 172% |  |  |  | 
6 | 86 nM | 562 nM | 146 nM | 100 nM | Nc1cncc(-c2ccc3[nH]nc(-c4cc5c(-c6cccnc6)nccc5[nH]4)c3c2)c1 [Compound 87, 5-(3-(4-(Pyridin-3-yl)-1H-pyrrolo[3,2-c]pyridin-2-yl)-1H-indazol-5-yl)pyridin-3-amine] | 113 nM | 178% |  |  |  | 
7 | 10 nM | > 10000 nM | 421 nM |  | O=C(Nc1cncc(-c2ccc3[nH]nc(-c4cc5c(-c6cccnc6)nccc5[nH]4)c3c2)c1)c1ccccc1 [Compound 95, N-(5-(3-(4-(Pyridin-3-yl)-1H-pyrrolo[3,2-c]pyridin-2-yl)-1H-indazol-5-yl)pyridin-3-yl)benzamide] | > 10000 nM | 19% | 0% | 15.5% |  | 
8 | 40 nM | 555 nM | 111 nM | 10 nM | O=C(Nc1cncc(-c2ccc3[nH]nc(-c4cc5c(-c6cccnc6)nccc5[nH]4)c3c2)c1)C1CCC1 [Compound 105, N-(5-(3-(4-(Pyridin-3-yl)-1H-pyrrolo[3,2-c]pyridin-2-yl)-1H-indazol-5-yl)pyridin-3-yl)cyclobutanecarboxamide] | 2420 nM | 172% |  |  |  | 
9 | 1020 nM | > 10000 nM | > 10000 nM | 30 nM | CC(C)CC(=O)Nc1cncc(-c2ccc3[nH]nc(-c4cc5c(-c6ccncc6)nccc5[nH]4)c3c2)c1 [Compound 114, 3-Methyl-N-(5-(3-(4-(pyridin-4-yl)-1H-pyrrolo[3,2-c]pyridin-2-yl)-1H-indazol-5-yl)pyridin-3-yl)butanamide] | 2220 nM | 95% |  | 4.1% | 39.7% | 
10 | > 10000 nM | 3790 nM | 658 nM | 100 nM | Nc1cncc(-c2ccc3[nH]nc(-c4cc5c(-c6ccncc6)nccc5[nH]4)c3c2)c1 [Compound 115, 5-(3-(4-(Pyridin-4-yl)-1H-pyrrolo[3,2-c]pyridin-2-yl)-1H-indazol-5-yl)pyridin-3-amine] | 1390 nM | 77% |  |  |  | 29%
11 | 9740 nM | > 10000 nM | > 10000 nM | 30 nM | O=C(Nc1cncc(-c2ccc3[nH]nc(-c4cc5c(-c6ccncc6)nccc5[nH]4)c3c2)c1)C1CCCC1 [Compound 134, N-(5-(3-(4-(Pyridin-4-yl)-1H-pyrrolo[3,2-c]pyridin-2-yl)-1H-indazol-5-yl)pyridin-3-yl)cyclopentanecarboxamide] | 2440 nM | 114% |  | 4.2% | 20.6% | 
12 | 48 nM | 296 nM | 445 nM | 10 nM | CCC(=O)Nc1cncc(-c2ccc3[nH]nc(-c4cc5c(N6CCCCC6)nccc5[nH]4)c3c2)c1 [Compound 169, N-(5-(3-(4-(Piperidin-1-yl)-1H-pyrrolo[3,2-c]pyridin-2-yl)-1H-indazol-5-yl)pyridin-3-yl)propionamide] | 149 nM | 244% |  |  |  | 
13 | 189 nM | 844 nM | 480 nM | 10 nM | c1cncc(-c2ccc3[nH]nc(-c4cc5c(N6CCCCC6)nccc5[nH]4)c3c2)c1 [Compound 172, 3-(4-(Piperidin-1-yl)-1H-pyrrolo[3,2-c]pyridin-2-yl)-5-(pyridin-3-yl)-1H-indazole] | 1050 nM | 172% |  |  |  | 
14 | 456 nM | 963 nM | 2960 nM | 900 nM | CCNCc1cncc(-c2ccc3[nH]nc(-c4cc5c(N6CCCCC6)nccc5[nH]4)c3c2)c1 [Compound 174, N-((5-(3-(4-(Piperidin-1-yl)-1H-pyrrolo[3,2-c]pyridin-2-yl)-1H-indazol-5-yl)pyridin-3-yl)methyl)ethanamine] | 1460 nM | 301% |  |  |  | 
15 | 350 nM | 1350 nM | 1320 nM |  | CC(C)(C)C(=O)Nc1cncc(-c2ccc3[nH]nc(-c4cc5c(N6CCCCC6)nccc5[nH]4)c3c2)c1 [Compound 176, N-(5-(3-(4-(Piperidin-1-yl)-1H-pyrrolo[3,2-c]pyridin-2-yl)-1H-indazol-5-yl)pyridin-3-yl)pivalamide] | 650 nM | 35% |  |  |  | 
16 | 1520 nM | 2870 nM | 2350 nM | 900 nM | O=C(Cc1ccccc1)Nc1cncc(-c2ccc3[nH]nc(-c4cc5c(N6CCCCC6)nccc5[nH]4)c3c2)c1 [Compound 178, 2-Phenyl-N-(5-(3-(4-(piperidin-1-yl)-1H-pyrrolo[3,2-c]pyridin-2-yl)-1H-indazol-5-yl)pyridin-3-yl)acetamide] | 505 nM | 73% |  |  |  | 
17 | > 10000 nM | 1940 nM | 4710 nM | 10 nM | CN(C)Cc1cncc(-c2ccc3[nH]nc(-c4cc5c(N6CCCCC6)nccc5[nH]4)c3c2)c1 [Compound 181, N,N-Dimethyl-1-(5-(3-(4-(piperidin-1-yl)-1H-pyrrolo[3,2-c]pyridin-2-yl)-1H-indazol-5-yl)pyridin-3-yl)methanamine] | 3320 nM | 220% |  |  |  | 22.5%
18 | 9310 nM | 3810 nM | 4210 nM |  | c1cc2[nH]c(-c3n[nH]c4ccc(-c5cncc(CN6CCCCC6)c5)cc34)cc2c(N2CCCCC2)n1 [Compound 183, 3-(4-(Piperidin-1-yl)-1H-pyrrolo[3,2-c]pyridin-2-yl)-5-(5-(piperidin-1-ylmethyl)pyridin-3-yl)-1H-indazole] | 3280 nM | 48% |  |  |  | 
